Test results from patent US8124371B2, “Compositions and methods for destabilizing lysosomes to increase oncogenic or aberrant protein degradation” (priority 2003, dated 2012).
Where a SMILES comes first, the peptide text is derived from it. [ ]: non-standard residue; d: D form. The star is where a group is joined. Nle = CCCC[C@H](N)C(=O)O; Cbz = O=C(OCc1ccccc1)*; CH2F = FC*

Assays:
HA-tagged PML/RARα = test: In vitro degradation assay with lysates of NB4-S1 cells; type: biochemical; details: for blocking of PML/RARα degradation by lysates of arsenic-treated cells: inhibitor added to in vitro degradation assay
Experimental: Cell lysates of NB4-S1 cells, either treated for 72 hours with arsenic (1 μM) or left untreated, were obtained using a mild-lysis buffer that supported lysosomal enzymatic activity. In vitro degradation assays were performed using these lysates and HA-tagged PML/RARα was used as a target for degradation.

[1] = test system: retinoic acid-sensitive NB4-S1 APL cells; test: Growth suppression, cell counts (Coulter counter); type: cell-based; details: for growth suppressive activity: agent alone, chloroquine ranked over retinoic acid-sensitive and -resistant cells
Experimental: Three independent experiments were conducted.
To identify other agents which destabilize lysosomes, APL cells were contacted with test agents and the ability of the test agent to induce cell death was evaluated.

APL NB4-S1 cells = test: Cell differentiation, nitroblue tetrazolium reduction assay; type: cell-based; details: 20 μM, 6 days
Experimental: (§1) Cell differentiation was evaluated using a nitroblue tetrazolium reduction assay, wherein the presence blue formazan deposits under light microscopy is indicative of differentiated cells. Further, apoptosis was evaluated using Hoechst staining of nuclear DNA wherein the DNA was characterized morphologically by nuclear condensation and fragmentation of chromosomes.

NB4-S1 APL cells [2] = test: Apoptosis, Hoechst staining of nuclear DNA; type: cell-based; details: 20 μM
Experimental: as §1
The percentage of apoptotic cells was determined. This experiment was performed independently three times and three random fields were selected to assess the percentage of apoptotic cells.

NB4-S1 cells = test: Lysosome destabilization, lysosome-specific targeting dye and confocal microscopy; type: cell-based; details: compared to untreated cells
Experimental: (§2) By way of illustration, arsenic was applied to APL, retinoic acid-sensitive NB4-S1 cells and found to rapidly (within 2 hours) destabilize lysosomes in these leukemic cells as compared to untreated cells in an assay using a lysosome-specific targeting dye and confocal microscopy. […] Conversely, cytochrome c (an activator of caspase-induced apoptosis) was not detected in the cytosol until 96 hours.

NB4-S1 APL cells [3] = test: Release of lysosomal proteins / cytochrome c into the cytosolic fraction, SDS-PAGE and immunoblot; type: cell-based; details: after 1 μM arsenic treatment
Experimental: as §2

[4] = test system: isolated lysosomes from NB4 APL cells; test: Degradation of isolated lysosomes in vitro
From the text: (§3) This arsenic-activated degradation program was also engaged by non-leukemic cells. […] Accordingly, this lysosome-dependent degradative pathway can be employed as a general therapeutic target for the destruction of oncogenic (e.g., PML/RARα) or aberrant (e.g., CFTR) proteins in the prevention and treatment of cancer or other diseases which are associated with said proteins. Further, lysosome destabilization can be used to identify other small molecule activators which, like arsenic, would have therapeutic activity via induced destabilization of lysosomes that would in turn eliminate oncogenic or other aberrant proteins by triggering their destruction.

[5] = test system: wild-type cystic fibrosis protein (CFTR); test: CFTR degradation by cell content of arsenic-exposed COS cells; type: biochemical; details: CFTR over-expressed in MDCK cells; cell content of COS exposed to arsenic
From the text: as §3

CCCC[C@@H](C=O)NC(=O)[C@H](CC(C)C)NC(=O)[C@H](CC(C)C)NC(C)=O [ALLN] (Ac-Leu-Leu-[Nle]-aldehyde)
blocking of PML/RARα degradation by lysates of arsenic-treated cells (HA-tagged PML/RARα): did not block PML/RARα degradation

CCN(CC)CCCC(C)Nc1ccnc2cc(Cl)ccc12 (centres unmarked) [Chloroquine, 7-chloro-4-(4-diethylamino-1-methylbutylamino) quinoline]
growth inhibitory effect in combination with retinoic acid ([1]; chloroquine 20 μM combined with retinoic acid 0.1 μM, FIG. 1A): additive growth inhibitory effect | induction of differentiation (APL NB4-S1 cells): does not induce differentiation | induction of apoptosis (NB4-S1 APL cells [2]): exposure time-dependent | % Apoptosis (NB4-S1 APL cells [2]; 24 hours): 16% | % Apoptosis (NB4-S1 APL cells [2]; 48 hours): 20% | % Apoptosis (NB4-S1 APL cells [2]; 72 hours): 30%

CN(C)CCCN1c2ccccc2CCc2ccccc21 [Imipramine]
growth suppressive activity [1]: some growth suppressive activity

CCCCCCCCCCCCC/C=C/[C@@H](O)[C@H](CO)NCCCCCCCC [N-octyl-D-erythro-sphingosine]
growth suppressive activity [1]: some growth suppressive activity

[AsH3] [arsenic]
time to destabilize lysosomes (NB4-S1 cells): ≤ 2 h | cathepsin B detectable in the cytosolic fraction, earliest time (NB4-S1 APL cells [3]): 30 min | cytochrome c not detected in the cytosol until (NB4-S1 APL cells [3]): 96 h | lysosomal protein esterase detectable in the cytosolic fraction, earliest time (NB4-S1 APL cells [3]): 5 min | PML/RARα degradation by cell lysates of treated NB4-S1 cells (HA-tagged PML/RARα; cells treated 72 hours, 1 μM, versus untreated cell lysates): rapidly degraded | degradation of isolated lysosomes upon treatment [4]: exhibited degradation in vitro | CFTR degradation [5]: observed to be degraded

CC(NC(=O)C(NC(=O)OCc1ccccc1)C(C)C)C(=O)NC(CC(=O)O)C(=O)CF (stereo not drawn) [zVAD] (Cbz-Val-Ala-Asp-CH2F; configuration not given here)
blocking of PML/RARα degradation by lysates of arsenic-treated cells (HA-tagged PML/RARα): did not block PML/RARα degradation
